We go through one compound from patent EP4007561B1, “PREVENTION AND REDUCTION OF CORNIFICATION DISORDERS AND RELATED COSMETIC AGENTS” (Merck Patent GmbH, priority 2019, dated 2021).

Values joined by “and” are separate entries in the source; they are usually repeats but may differ in a detail not shown here. Equal entries are not always repeated.

Common to all, as to format: cell-based, human
One assay concerns LAMP2A. The assay is described as follows: Fluorescence imaging (immunostaining) of protein expression on skin explants ex vivo. The following applies: ectoine 0.2% w/v; basal conditions (without UV-A); Figure 3. The procedure: (§1) To evidence changes at the expression level of a selected pool of proteins on skin explants (ex vivo), treated or not with ectoine 0.2% (source Merck KGaA. Darmstadt, Germany) and exposed or not to UV-A irradiation: At day 0 (D0), the skin explants from a donor (phototype III, ref. EXP001100F022) are kept alive in calcium-free DMEM (Dulbecco's modified Eagle medium), with 10% FCS (Fetal calf serum), at 37°C and humid atmosphere, supplemented with 5% CO2. On day 1 (D1), ectoine 0.2% w/v) is obtained by dilution in H2O. The experimental groups are incubated for 24 hours with the active prior to irradiation.
(§2) On day 2 (D2), a stress induced by irradiation with UV-A (LED source, peak at 365 nm at a 480J/cm^2 during 40 minutes) is applied to the explants.
(§3) Skin explants are previously treated or not with ectoine and irradiated or not with UV-A, cryo-preserved in OCT (an embedding resin (Shandon Cryomatrix; Thermo Scientific, Reference 6769006)), flash-frozen in isopetan/liquid nitrogen and stored at -80 °C.
(§4) Tissue sections of 5 µm are cut by using a cryotome, air-dried at room temperature (RT) for 15 minutes and fixed with a mix of 95% ethanol/5% acetic acid for 5 minutes. Fixed tissues are then saturated with 5% BSA (bovine serum albumin) in PBS (Phosphate Buffered Saline; 1X, pH 7.4) at RT. […]

Another assay concerns Filaggrin. The description is as above. To be noted: ectoine 0.2% w/v, 24 hours prior to UV-A irradiation (365 nm, 480J/cm^2, 40 minutes); Figure 2. The procedure:
as §1, §2, §3, §4

In another assay the test system is skin explants. Nature of the assay: Protein oxidation (carbonylation) by differential in-gel electrophoresis proteomics, unidentified spots and overall spot pattern. To be noted: for Average normalized volume (oxidation level): UV-A + Ectoine 0.2%, UV-A 365 nm, 480J/cm2, 40 min. The protocol:
To assess and quantify protein oxidation (carbonylation) by differential in-gel electrophoresis proteomics approach evidencing differentially oxidized protein spots upon UV-A (365 nm) irradiation on skin explants in the presence or absence of ectoine (0,2%) (source Merck KGaA, Darmstadt, Germany).
During the study human explants are irradiated under UVA (LED source; sources and chamber manufactured for custom needs by UWAVE;France, peak at 365nm at a 480J/cm2 dose during 40 min). A solution of N-acetylcysteine (Reference A7250, Sigma-Aldrich) is used as positive control of protection. Just after irradiation, explants are snap-frozen and proteins extracted for analyses.
Protein extraction from explants is performed using a commercial kit (Total Protein Extraction Kit, Merck KGaA) protocol for skin explants. Extracted proteins are quantified by the Bradford method and split into equal amounts for analyses. The samples are analyzed for carbonylated proteins after they are labeled with fluorescent probes functionalized to selectively react with carbonyl groups. The fluorescent labeling of carbonyls is obtained by the reaction with amine-N-oxyl functionalized fluorophore (custom synthetized) and formation of a stable covalent bond.
Thus, the samples are labeled with two different fluorescent dyes characterized by different excitation and emission wavelength peaks: CF®555 (Source :Biotium) is a red fluorescent dye spectrally similar to Cy3® and Alexa Fluor® 555 (λex547nm/λem572nm) and CF®647 (Source: Biotium) CF®647is a far-red fluorescent dye spectrally similar to Cy®5 and Alexa Fluor® 647 (λex639nm/λem668nm). This approach allows to load two distinct labeled samples in the same bi-dimensional electrophoresis gel and to analyze them independently.
Moreover, 50 µg of proteins of each sample are pooled and labeled a third fluorescent probe CF®488 (Source: Biotium) (λex483nm/λem508nm). CF®488 is a green fluorescent dye spectrally similar to Alexa Fluor® 488. CF®488 is and used as Internal Standard (IS) for inter-gel normalization. After specific fluorescent labeling, carbonylated proteins are separated by bi-dimensional electrophoresis and the fluorescence images are obtained for each specifically labeled sample.
The first dimension of protein separation (isoelectric focusing) is performed using gel-strips with nonlinear pH 3 to 11 while the second step of electrophoresis separation is conducted by SDS-PAGE using 4%-20% w/v gradient polyacrylamide gels. The digital acquisition of gel images is performed by using the «Ettan DIGE imager» system (GE Healthcare). Data treatment is performed with the software «Progenesis SameSpots» (Nonlinear Dynamics, UK).
Carbonylated proteins are presented as superposed images of two independent fluorescent signals (in green or red) and the coincident proteins with equivalent intensity result in yellow spots by superposition of the two dye colors used for their labeling (superposition of green and red colors). The carbonylated proteins that are present in a different level in the two samples on gel are visualized as red or green spots depending by the experimental group as independent labeling of each sample.
More than 200 spots are detected per sample, with an increase in number and intensity in the samples of the irradiated group (UV-A). These spots are localized between 37 kDa and 75 kDa. The fluorescence signal of each spot is normalized over the internal standard spot signal for each gel. The alignment of spots from different gels and the analysis of variance of their carbonylation levels in different samples and in different groups are performed by using the software Progenesis Samespots.

On to `CC1=N[C@H](C(=O)O)CCN1` [Ectoine, (S)-1,4,5,6-tetrahydro-2-methyl-4-pyrimidincarboxylic acid], for which, in the assay on LAMP2A, the LAMP2A expression result is “increases LAMP2A expression”. The Filaggrin expression level result with Filaggrin was “prevents this decrease of Filaggrin”. The “Average normalized volume (oxidation level)” value with skin explants (Spot 100 (protein not identified), n=4) is “→ 1.129”; in the assay on skin explants (Spot 203 (protein not identified), n=4), “→ 1.062”; in the assay with skin explants (Spot 230 (protein not identified), n=4), “→ 1.433”. The “level of oxidation of protein spots in the absence of irradiation” value with skin explants (basal conditions, no UV-A, spots different from those protected from UV-A stress (except spot 100)) is “decreases the level of oxidation of ten protein spots”. In addition, in the assay on skin explants (ectoine 0.2%, UV-A irradiation, n=4), the “protein carbonylation after ectoine treatment, spots 100, 230, 203” value is “carbonylation is not reduced”. Further, in the assay on skin explants (ectoine 0.2%, of 8 spots increased by UV-A, spots 186, 133, 184, 185, 206, n=4), the “protection of protein spots from UV-A induced oxidation (carbonylation)” value was “five spots are detected as protected and 5 proteins exhibit reduced protein carbonylation and prevents protein carbonylation significantly”.
